Row | melting point [°C] | SMILES
1 | 218 to 219 | Nc1nc(N)c(-c2cccc(Cl)c2Cl)c(C(F)(F)F)n1
2 | 116 | CN(C1CCNCC1)S(=O)(=O)c1ccc(Nc2nccc(-c3ccc(F)cc3)n2)cc1
3 | 225 to 230 | O=C(O)c1cn(CCc2ccc(C(F)(F)F)cc2)c2cc(C3CC3)nn2c1=O
4 | 154 to 158 | CCCCc1nc(Cl)c(CN2CCN(c3ccccc3OC)CC2)n1Cc1ccc(-c2ccccc2-c2nnn[nH]2)cc1
5 | 89 to 91 | O=C=NCCC12CCCn3c1c(c1ccccc13)CCO2 (centres undefined)
6 | 267 to 270 | COc1cccc2c1nc(C(F)F)n2-c1nc(Nc2ccc(N)nc2)nc(N2CCOCC2)n1
7 | > 230 | CC(=O)Nc1ccc(C23CC2C(=O)NC3=O)cc1 (centres undefined)
8 | 152 to 155 | COc1ccc(N2C(=O)[C@H](O)[C@@H]2CC2CCCCC2)cc1
9 | 212 | Cc1cc(C#N)cnc1Oc1c(Cl)cc(N)cc1Cl
10 | 157 to 160 | CSC1=Nc2ccc(C)cc2Cn2nnnc21
11 | 271 to 272 | O=C(O)c1cccc(-c2cccc([N+](=O)[O-])c2)c1
12 | 237 | Cc1cc(Br)c(S(N)(=O)=O)cc1C(=O)O
13 | 138 | Cc1noc(C)c1-c1ccc(OC2SCC(O)C(O)C2O)cn1 (centres undefined)
14 | 143 to 144 | C/C(=C\c1ccc(C(=O)N2CCOCC2)cc1)c1ccc2c(c1)C(C)(C)CCC2(C)C
15 | 164 to 166 | COc1ccc(C2=NN(C3CCN(C(=O)NC(C)(C)C)CC3)C(=O)[C@@H]3CC=CC[C@H]23)cc1OC
16 | 122 to 123 | C=CCOc1cccc2oc(C(=O)OCC)cc(=O)c12
17 | 94 to 95 | CC1CCc2ccc(O)cc2O1 (centres undefined)
18 | 66 to 68 | FC(F)(F)c1ccccc1-c1nc(-c2ccccc2Cl)nn1CCCl
19 | > 300 | Cc1cc2sc3ncc(C(=O)Nc4nnn[nH]4)c(=O)n3c2cc1C
20 | 90 to 93 | C(OCC1CO1)C1CO1 (centres undefined)
21 | 160 to 162 | Cc1cccc(C)c1NC(=O)Cn1ccnc1
22 | 59 to 60 | CC(=O)Oc1c(C)sc2ccc(C(F)(F)F)cc12
23 | 88 to 89 | C=C=Cc1c(C)nc2c(OCc3ccccc3C)cccn12
24 | 202 to 206 | Cc1ccccc1C(=O)Nc1ccc(C(=O)N2CCCC(CO)c3ccccc32)cc1 (centres undefined)
25 | 190 | CCn1c(C)cc(=O)nc1S

Row | melting point [°C] | SMILES
26 | 202 to 204 | CSC(C)(C(=O)O)c1ccc(N2C(=O)c3ccccc3C2=O)cc1 (centres undefined)
27 | 114 to 115 | CCOC(=O)c1cnn2c1c(NC1CCCCCC1)nc1ccccc12
28 | 249 to 250 | CCCn1c(=O)c2c(nn3cc(-c4cccc(OC)c4)[nH]c23)n(Cc2ccccc2)c1=O
29 | 65 | NC[C@H]1COc2ccc(F)c(-c3ccc(Cl)cc3Cl)c2O1
30 | 73 to 76 | CCCCCCCCCCCCCCCCCC(=O)c1ccc(C2=NC(C)(C)CO2)cc1
31 | 193 to 196 | CCCc1cc(=O)[nH]c2cc(OC)cc(OC)c12
32 | 111 to 113 | Cc1cc(NC(=O)CN2CCN(c3ncccc3C#N)CC2)ccc1F
33 | 162 to 164 | O=CC1Cc2cc(C(=O)c3cccs3)c(Cl)c(Cl)c2O1 (centres undefined)
34 | 243 to 245 | C/C=C/c1cccc2c(=O)c(C)c(C(N)=O)oc12
35 | 117 to 120 | O=C(NCCC1CC1)c1ccc(N2CCN(C(=S)c3ccccc3C(F)(F)F)CC2)nn1
36 | 110 to 112 | CCCCc1oc2ccccc2c1C(=O)NCc1ccc2c(Br)c(OC(Cc3ccccc3)C(=O)OC)ccc2c1 (centres undefined)
37 | 228 to 230 | CN(C)C(=O)CCc1ccc2c(c1)nc(N)c1nc(CO)n(CC(C)(C)O)c12
38 | 145 | CCCCN1C(=O)NC(C(C)O)C1=O (centres undefined)
39 | 29.5 to 32 | CCOC(=O)CCc1c(OCCCCCBr)ccc2ccc(OCC(=O)OCC)cc12
40 | 212 to 213 | O=c1[nH]c2ccc(Cl)cc2s1
41 | 273 to 274 | Cc1n[nH]c(-c2ccc(Br)cc2)c1NC(=O)c1ccccc1
42 | 190 to 192 | CCOc1cccc(C(COc2ccccc2)n2nc(C(=O)O)c3c2-c2ccc(OCc4cncnc4)cc2CC3)c1 (centres undefined)
43 | 175 to 178 | COC(=O)C1=C(C)NC(c2cnc(Cl)s2)=NC1c1ccc(F)cc1 (centres undefined)
44 | 100 to 125 | CC(COc1ccc(CC2SC(=O)NC2=O)cc1)NCC(O)c1cccc(Cl)c1 (centres undefined)
45 | 123 to 125 | CC(C)(C)C(=O)OCCN1CCN(c2nc(N)ncc2Oc2ccc(Cl)cc2)CC1
46 | 204 | CC(C)(C)C1=C(C#N)C(c2cccc3nonc23)c2c[nH]nc2N1 (centres undefined)
47 | 103 to 104 | COc1cc(CC#N)c([N+](=O)[O-])cc1C(F)(F)F
48 | 122 | CC(=O)OC1CSC(Sc2ccc(C(C)=O)cc2)C(OC(C)=O)C1OC(C)=O (centres undefined)
49 | 159 | Nc1nc(Cl)cc(CF)n1
50 | 93 to 98 | COC(=O)CC(=O)c1ccc(C#N)cc1

Row | melting point [°C] | SMILES
51 | 272 to 274 | COc1cc(C(C)C)ccc1C1(O)C(=O)c2ccc(N)c(N)c2C1=O (centres undefined)
52 | 106 to 108 | CC(C)C1(C)NC(c2ccc(C=O)cn2)=NC1=O (centres undefined)
53 | 84 to 86 | CC(C(=O)O)c1ccc(CC2CCCCC2=O)cc1 (centres undefined)
54 | 109 to 110 | c1cnc(N2CCN(Cc3ccc4ccccc4c3)CC2)nc1
55 | 211 to 212 | COc1ccc2nc(C3(c4ccc(S(N)(=O)=O)cc4)C=C(C(F)F)NN3)sc2c1 (centres undefined)
56 | 79 | CCNC(=NNc1c(Cl)cc(C(F)(F)F)cc1Cl)C1(C)CC1(Cl)Cl (centres undefined)
57 | 183 to 186 | Cc1ccc(N)cc1Nc1cc(-c2cccnc2)ccn1
58 | 199 to 201 | CC(C)(CO)COc1ccc(-c2c(C(N)=O)oc3ccccc23)cc1C#N
59 | 114 to 116 | CN=C(NC#N)NCCSCc1ncccc1Br
60 | 193 to 197 | Cc1ncc2c(n1)-c1ccc(Cl)cc1C(c1ccccc1Cl)=NC2
61 | 80 to 82 | CCOC(=O)COCc1nnc(S)s1
62 | 118 to 120 | CC(N=Cc1ccc(O)cc1)c1ccc([N+](=O)[O-])cc1 (single isomer, unassigned; (-))
63 | 185 to 186 | COc1cc(Oc2ccc(S(C)(=O)=O)nc2)cc2cc(C3=NCC(CC(=O)NC[C@H](C)O)S3)[nH]c12 (some centres undefined)
64 | 124 | CCCCCc1cnc(-c2ccc(-c3ccc(C#N)cc3)cc2)nc1
65 | 242 | N#CC1=C(c2ccsc2)Nc2n[nH]cc2C1c1cccc2nonc12 (centres undefined)
66 | 146 | ClC1c2ccccc2C=Cc2ccc(Br)cc21 (centres undefined)
67 | 177 to 179 | O=C1NN=C(c2ccccc2)c2c[nH]c3cccc1c23
68 | 84 to 86 | COC1(c2ccc(Sc3ccc4c(c3)CCC(=O)N4C)s2)CCOCC1
69 | 112 to 115 | CCCCc1c(C(=O)OCC)cc(O)c2ccc(OC)cc12
70 | 154 | COc1cc2c(cc1Nc1ncc(Cl)c(Nc3ccccc3S(=O)(=O)N(C)C)n1)N(CC(=O)N(C)C)C(=O)CN(CC(=O)N(C)C)C2
71 | 161 to 162 | COc1cc2c(c([N+](=O)[O-])c1)NCCC2=O
72 | 127 | COC(=O)c1c2ccccc2nc2c3ccccc3n(C)c12
73 | 156 to 158 | COc1ccc2cc3c(N)nn(CN(C)C)c3nc2c1
74 | 193 to 194 | CN1C(=O)Nc2ccc(-c3cccc(Cl)c3)cc2C1(C)C1CC1 (centres undefined)
75 | 38 | N#Cc1cc(N)ccc1N(CCO)CCO

Row | melting point [°C] | SMILES
76 | 79 to 83 | CC(C)(C)[C@H](NC(=O)CCC1c2ccccc2-c2ccccc21)C(=O)O
77 | 230 | Oc1ccc2nc(-n3ccnc3)nc(NCc3ccccc3)c2c1
78 | 47 to 49 | CC(C)(C)c1ccc(C(=O)C(Cl)Cl)cc1
79 | 122 to 124 | COC(=O)[C@@H]1C[C@H](C(=O)O)Nc2cc(Cl)ccc21 (relative stereo)
80 | 91 to 93 | FC(F)(F)Oc1cccc(C=Cc2nc(CNc3ccc(CCCCn4ccnn4)cc3)co2)c1
81 | 218 | CN(C(=O)c1cc(=O)n(C)c2ccc(C(O)(c3ccc(Cl)cc3)c3cncn3C)cc12)c1cccc(Cl)c1 (centres undefined)
82 | 124 to 127 | Cc1ccccc1C(=O)NCN1CCN(c2ncccc2C#N)CC1
83 | 153 to 156 | O=Cc1coc2c(c1=O)CCc1ccccc1-2
84 | 74 to 76 | COC(=O)c1c([N+](=O)[O-])cc(OC)c(OC)c1OC
85 | 156 to 158 | CCOC(=O)c1cc(Br)c2ccccn2c1=O
86 | 116 to 118 | CC(C)c1nc(CNS(C)(=O)=O)n(C)c1Sc1cc(Cl)cc(Cl)c1
87 | 42 to 43 | CCOC(=O)c1noc(C2CC2)c1C(=O)c1ccc(Br)cc1CSC
88 | 122 to 123 | O=C(CC1c2ccccc2C(=O)N1c1ccccc1)N1CCCCC1 (centres undefined)
89 | 138 | Cc1cc(C)c(-c2csc(N)n2)c(C)c1
90 | 161 to 162 | CCC(Oc1cc(OC)ccc1C(=O)c1ccc(OCc2nc(-c3ccccc3)oc2C)cc1)C(=O)O (centres undefined)
91 | 248 | Cc1cc(Sc2sc(-c3ccc(C(F)(F)F)cc3)nc2C)ccc1Cc1nn[nH]n1
92 | 165 to 166 | CCN(CC)CCCC1CCN(CCNC(=O)N2c3ccccc3C(=O)Nc3cccnc32)CC1
93 | 111 to 113 | N#CCCN(N)c1nc2ccccc2s1
94 | 154 | C=CC(C)(C)c1cc(CCC(=O)c2ccc(O)cc2)c(OC)cc1O
95 | 140 to 142 | CCN(CC)Cc1cc(C(N)=O)cc(Br)c1N
96 | 137 to 140 | CCN(CC)C(=O)c1ccc2ccccc2c1-c1ccccc1F
97 | 183 to 186 | Cc1cc(-c2nc[nH]n2)ccc1N
98 | 213 to 215 | O=C(CBr)Nc1ccc(O)cc1C(=O)O

Row | SMILES | melting point [°C]
99 | CCOn1nnnc1SC[PH](=O)O | 120 to 122
100 | CC(=O)CCS(=O)(=O)C(c1ccc(Cl)cc1)c1ccc(Cl)cc1 | 103 to 105
101 | O=C(CCl)NCC1OCCO1 | 61 to 63
102 | CN(C)Cc1nc(C=Cc2nc3ccc(F)cc3c(=O)n2-c2ccccc2F)cs1 | 163 to 165
103 | CC(=O)CS(=O)(=O)C(c1ccc(Cl)cc1)c1ccc(Cl)cc1 | 114 to 115
104 | CCCc1c2c(nc3cc(F)c(F)cc13)-c1cc3c(c(=O)n1C2)COC(=O)CC3(O)CC (centres undefined) | 250
